Literature values as cited in patent US8440668B2, “Beta-amino heterocyclic dipeptidyl peptidase inhibitors for the treatment of type 2 diabetes” (Merck Sharp & Dohme Corp, priority 2001, dated 2013).
Values belong to the molecule of their own block, whether it stands above or below them.

Tests used:
rats = conditions: Transplantation 63, 1495-1500 (1997)
mouse = conditions: cyclophosphamide-induced neutropenia, WO 99/56753
DP-IV = biological target: T1, DP-IV (Homo sapiens, UniProt P27487)
T1 construct: GRF is rapidly degraded in plasma to GRF[3-44]; from tissue
T1 sequence (P27487 39-766 limits assumed): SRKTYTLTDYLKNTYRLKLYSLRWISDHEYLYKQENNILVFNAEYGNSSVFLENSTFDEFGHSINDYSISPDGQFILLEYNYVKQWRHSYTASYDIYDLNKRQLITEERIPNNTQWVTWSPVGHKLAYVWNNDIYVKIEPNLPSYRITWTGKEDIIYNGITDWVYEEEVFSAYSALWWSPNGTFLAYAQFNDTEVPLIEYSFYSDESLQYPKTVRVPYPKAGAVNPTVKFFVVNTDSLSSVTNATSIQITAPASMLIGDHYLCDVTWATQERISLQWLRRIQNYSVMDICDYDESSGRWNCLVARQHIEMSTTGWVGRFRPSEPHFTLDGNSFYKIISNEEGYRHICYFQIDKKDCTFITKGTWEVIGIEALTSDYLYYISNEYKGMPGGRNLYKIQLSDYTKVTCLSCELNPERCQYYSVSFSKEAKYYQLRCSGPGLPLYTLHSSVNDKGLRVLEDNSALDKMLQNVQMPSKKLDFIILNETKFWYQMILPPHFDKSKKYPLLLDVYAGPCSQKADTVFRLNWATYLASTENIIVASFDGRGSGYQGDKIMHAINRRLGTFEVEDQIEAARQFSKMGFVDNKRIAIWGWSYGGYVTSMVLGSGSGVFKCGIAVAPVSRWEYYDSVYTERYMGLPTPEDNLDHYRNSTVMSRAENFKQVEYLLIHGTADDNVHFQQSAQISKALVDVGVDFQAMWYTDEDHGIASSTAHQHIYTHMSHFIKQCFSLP

Molecule: CC(C)N1CCC(c2ccccc2)(c2ccccc2)CC1 [Prodipine, Pro-Pro-diphenyl-phosphonate]
cardiac allograft survival (rats): double cardiac allograft survival in rats from day 7 to day 14

Molecule: CC(C)[C@H](N)C(=O)N1CCC[C@H]1B(O)O [Val-Boro-Pro]
hematopoiesis (mouse): stimulated hematopoiesis

degradation of GRF in plasma to GRF[3-44] (DP-IV): prevented
Molecule: diprotin A
